Measured values as given in patent US20240092800A1, “USP13 INHIBITORS AND METHODS OF USE THEREOF” (GEORGETOWN UNIVERSITY, priority 2021, published 2024).

What was measured:
[1] = biological target: T1, human USP13 (Homo sapiens, UniProt Q92995); assay: USP13 activity via ELISA in SHSY5Y cells; type: cell-based
T1 construct: USP13 activity via ELISA in human SHSY5Y neuroblastoma cells; endogenous in cells; host or cells: human SH-SY5Y neuroblastoma cells (transiently transfected with human wild-type alpha-synuclein, not with USP13)
T1 sequence (Q92995 1-863): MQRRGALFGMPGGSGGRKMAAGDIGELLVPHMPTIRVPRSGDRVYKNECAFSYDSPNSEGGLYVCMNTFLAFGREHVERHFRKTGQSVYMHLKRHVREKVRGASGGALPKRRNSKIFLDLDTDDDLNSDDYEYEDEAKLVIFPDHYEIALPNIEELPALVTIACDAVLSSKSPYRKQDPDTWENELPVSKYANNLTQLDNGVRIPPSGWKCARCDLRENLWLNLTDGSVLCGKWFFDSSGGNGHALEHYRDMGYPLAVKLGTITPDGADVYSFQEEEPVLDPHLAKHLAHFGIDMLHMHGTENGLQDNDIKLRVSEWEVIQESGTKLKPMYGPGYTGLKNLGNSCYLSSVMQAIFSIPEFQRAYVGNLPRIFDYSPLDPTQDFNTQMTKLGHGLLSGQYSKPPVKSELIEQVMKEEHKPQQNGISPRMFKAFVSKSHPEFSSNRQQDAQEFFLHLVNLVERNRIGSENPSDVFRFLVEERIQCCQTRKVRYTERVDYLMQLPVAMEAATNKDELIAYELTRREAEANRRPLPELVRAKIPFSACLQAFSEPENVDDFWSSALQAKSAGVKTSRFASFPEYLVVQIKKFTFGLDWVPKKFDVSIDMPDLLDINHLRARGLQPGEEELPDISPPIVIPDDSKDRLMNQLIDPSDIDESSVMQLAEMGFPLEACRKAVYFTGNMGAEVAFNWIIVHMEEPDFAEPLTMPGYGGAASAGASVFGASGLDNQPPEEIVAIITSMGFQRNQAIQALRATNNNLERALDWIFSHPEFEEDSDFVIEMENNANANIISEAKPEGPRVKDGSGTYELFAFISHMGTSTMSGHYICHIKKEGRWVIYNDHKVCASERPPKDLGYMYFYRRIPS
Method: Cell lines, transfection, and treatment.
(§1) A total of 25 μL soluble protein was incubated overnight at 4° C. with 25 μL of a mixed bead solution. After washing, samples were incubated with 25 μL detection antibody solution for 1.5 hours at room temperature. Streptavidin-phycoerythrin (25 μL) was added to each well containing the 25 μL of detection antibody solution. Samples were then washed and suspended in 100 μL of sheath fluid. Samples were then run on MAGPIX with Xponent software. The median fluorescent intensity (MFI) data were analyzed using a 5-parameter logistic or spline curve-fitting method for calculating analyte concentrations in samples. Specific alpha-synuclein ELISAs were performed on tissue soluble extracts from midbrain lysates in 1XSTEN buffer. The ELISA for USP13 (MyBioSource, Cat # MBS9335287), Human alpha-synuclein (Biolegend, Cat #844101) and specific p-Tau ser396 (Invitrogen, KHB7031) were performed on cell or brain tissue extracts as described above according to manufacturers' protocol.
Statistical and Data Analysis. All statistical analyses were performed using GraphPad Prism version 5.0 (GraphPad software, Inc, San Diego, CA, USA). Two-tailed student's t-test was used in comparison of means of two groups. Ordinary one-way analysis of variance (ANOVA) followed by Newman-Keuls or Dunnett comparison post hoc tests were used in comparison of means of multiple groups. Asterisks denote actual p-value significances (*<0.05, **<0.01, ***<0.001 and ****<0.0001), and N is the number of animals or the number of independent experiments (cell culture) per group. Unless otherwise indicated, data are expressed as Mean±SD. IC50 to USP13 levels was also estimated using GraphPad Prism version 5.0 (GraphPad software, Inc, San Diego, CA, USA).

[2] = test system: human alpha-synuclein; assay: Alpha-synuclein levels in TgA53T mice (WB, ELISA, DAB staining); type: in vivo, mouse; conditions: 10 mg/kg or 40 mg/kg I.P. daily for 7 days, vs DMSO
[3] = test system: murine tau; assay: p-Tau ser396 ELISA in TgA53T mice; type: in vivo, mouse; conditions: 10 mg/Kg or 40 mg/Kg I.P. daily for 7 days
Method: as §1

[4] = test system: tyrosine hydroxylase (TH); assay: Tyrosine hydroxylase staining in striatum of TgA53T mice; type: in vivo, mouse; conditions: 40 mg/Kg I.P. daily for 7 days, vs DMSO
Method: (§2) Immunohistology. Animals were deeply anesthetized with a mixture of xylazine and ketamine (1:8), washed with normal saline for 1 min and then perfused with 4% paraformaldehyde (PFA) for 15-20 min. Brains were quickly dissected out and immediately stored in 4% PFA for 24 h at 4° C. and then transferred to 30% sucrose at 4° C. for 48 h. Brains were cut using a cryostat microtome into 20 μm thick coronal sections and stored at −20° C.
Immunohistochemistry was performed on the 20 μm thick brain sections for evaluation of ubiquitination of alpha-synuclein. The antibodies used were human alpha-synuclein monoclonal antibody (Thermo Fisher, AHB0261, Rockford, IL, USA) and ubiquitin polyclonal antibody (Thermo Fisher, PA3-16717, Rockford, IL, USA). The optic densitometry of co-localization of ubiquitin with alpha-synuclein was measured using Image J. Tyrosine hydroxylase (TH) is the limiting enzyme in DA synthesis, so probing for TH+ neurons will help to evaluate the status of DA producing neurons in the SN and their terminals in the striatum. We performed fluorescent staining of TH+ in striatum and conducted optic densitometry measurement of striatal DA terminals. Nuclear staining with 4,6-diamidino-2-phenylindole was performed according to manufacturer's protocols (Life Technologies, Rockford, IL, USA).

[5] = test system: Nissl+ cells; assay: Nissl staining neuron counts in TgA53T mice; type: in vivo, mouse; conditions: 40 mg/Kg I.P. daily for 7 days, vs DMSO
Method: as §2
Nissl and Silver Staining. Nissl staining was performed using FD Cresyl Violet Solution™ Regular Strength (FD NeuroTechnologies, Cat PS102-01) as per manufacturer's instructions. Silver staining was performed using FD NeuroSilver™ (FD NeuroTechnologies, Cat PK301,) as per manufacturer's instructions.

Fc1ccc2nccc(OCc3ccccc3)c2c1 [4-(Benzyloxy)-6-fluoroquinoline]
IC50 ([1]; SHSY5Y cell line, estimated with GraphPad Prism, read-out: IC50 to inhibit USP13 activity): 0.078 µM | USP13 activity via ELISA ([1]; SHSY5Y cells, 5 hours, concentration range of 1 nM-1 mM): significantly reduce the activity of human USP13 | human alpha-synuclein in midbrain lysates by WB [2]: significantly reduced | murine tau levels (ptau396 ELISA) [3]: no effect | staining of tyrosine hydroxylase (TH) [4]: did not show any noticeable effects | neuron counts (Nissl+ cells) ([5]; cortex): significantly increased neuron counts | neuron counts (Nissl+ cells) ([5]; striatum): significantly increased neuron counts | neuron counts (Nissl+ cells) ([5]; substantia nigra (SN)): significantly increased neuron counts
